Laboratory results taken from US10442807B2, “Aryl substituted bicyclic compounds as herbicides” (FMC Corporation, priority 2015, dated 2019).

Legend:
Format in all cases: in vivo
[1] = test system: blackgrass (Alopecurus myosuroides); experiment: Test A postemergence application, visual injury rating; conditions: approx. 10 d, 0 = no effect, 100 = complete control
In short: (§1)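 In a loam soil and sand blend, either planted seeds got a preemergence directed soil spray or plants at the one- to two-leaf stage (2 to 10 cm tall) were sprayed, using test chemicals in a non-phytotoxic solvent mixture with surfactant. After about 10 d in a greenhouse, injury was visually rated against untreated controls on a 0-100 scale.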

[2] = test system: galium (catchweed bedstraw, Galium aparine); experiment: as above; conditions: approx. 10 d, 0 = no effect, 100 = complete control
In short: as §1

[3] = test system: ragweed (common ragweed, Ambrosia elation); experiment: as above; conditions: approx. 10 d, 0 = no effect, 100 = complete control
In short: as §1

[4] = test system: corn (Zea mays); experiment: as above; conditions: approx. 10 d, 0 = no effect, 100 = complete control
In short: as §1

[5] = test system: pigweed (Amaranthus retroflexus); experiment: as above; conditions: approx. 10 d, 0 = no effect, 100 = complete control
In short: as §1

[6] = test system: foxtail, giant (giant foxtail, Setaria faberii); experiment: as above; conditions: approx. 10 d, 0 = no effect, 100 = complete control
In short: as §1

[7] = test system: ryegrass, Italian (Italian ryegrass, Lolium multiflorum); experiment: as above; conditions: approx. 10 d, 0 = no effect, 100 = complete control
In short: as §1

[8] = test system: wheat (Triticum aestivum); experiment: as above; conditions: approx. 10 d, 0 = no effect, 100 = complete control
In short: as §1

[9] = test system: barnyardgrass (Echinochloa crus-galli); experiment: as above; conditions: approx. 10 d, 0 = no effect, 100 = complete control
In short: as §1

[10] = test system: kochia (Kochia scoparia); experiment: as above; conditions: approx. 10 d, 0 = no effect, 100 = complete control
In short: as §1

[11] = test system: rice (Oryza sativa); experiment: Test B flooded paddy test, visual plant response rating; conditions: 250 g ai/ha; applied to paddy water at 2-leaf stage; rated after 13 to 15 days; scale 0 to 100, 0 is no effect, 100 is complete control
In short: (§2)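 Compounds went directly into paddy water with pots flooded 3 cm above soil, that depth held throughout. After 13 to 15 days in the greenhouse, plants were visually rated against untreated controls on a 0 (no effect) to 100 (complete control) scale.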

[12] = test system: barnyardgrass (Echinochloa crus-galli); experiment: as above; conditions: 250 g ai/ha; applied to paddy water at 2-leaf stage; rated after 13 to 15 days; scale 0 to 100, 0 is no effect, 100 is complete control
In short: as §2

[13] = test system: sedge, umbrella (small-flower umbrella sedge, Cyperus difformis); experiment: as above; conditions: 250 g ai/ha; applied to paddy water at 2-leaf stage; rated after 13 to 15 days; scale 0 to 100, 0 is no effect, 100 is complete control
In short: as §2

[14] = test system: ducksalad (Heteranthera limosa); experiment: as above; conditions: 250 g ai/ha; applied to paddy water at 2-leaf stage; rated after 13 to 15 days; scale 0 to 100, 0 is no effect, 100 is complete control
In short: as §2

[15] = test system: ragweed (common ragweed, Ambrosia elation); experiment: Test A preemergence, directed soil spray, visual injury rating; conditions: approx. 10 d, 0 = no effect, 100 = complete control
In short: as §1

[16] = test system: pigweed (Amaranthus retroflexus); experiment: as above; conditions: approx. 10 d, 0 = no effect, 100 = complete control
In short: as §1

[17] = test system: foxtail, giant (giant foxtail, Setaria faberii); experiment: as above; conditions: approx. 10 d, 0 = no effect, 100 = complete control
In short: as §1

[18] = test system: ryegrass, Italian (Italian ryegrass, Lolium multiflorum); experiment: as above; conditions: approx. 10 d, 0 = no effect, 100 = complete control
In short: as §1

[19] = test system: barnyardgrass (Echinochloa crus-galli); experiment: as above; conditions: approx. 10 d, 0 = no effect, 100 = complete control
In short: as §1

[20] = test system: kochia (Kochia scoparia); experiment: as above; conditions: approx. 10 d, 0 = no effect, 100 = complete control
In short: as §1

SMILES	Blackgrass plant response rating (0 to 100 scale) ([1]; 125 g ai/ha)	Blackgrass plant response rating (0 to 100 scale) ([1]; 500 g ai/ha)	Galium plant response rating (0 to 100 scale) ([2]; 125 g ai/ha)	Galium plant response rating (0 to 100 scale) ([2]; 500 g ai/ha)	Ragweed plant response rating (0 to 100 scale) ([3]; 125 g ai/ha)	Ragweed plant response rating (0 to 100 scale) ([3]; 500 g ai/ha)	Corn plant response rating (0 to 100 scale) ([4]; 125 g ai/ha)	Corn plant response rating (0 to 100 scale) ([4]; 500 g ai/ha)	Pigweed plant response rating (0 to 100 scale) ([5]; 125 g ai/ha)	Pigweed plant response rating (0 to 100 scale) ([5]; 500 g ai/ha)	Foxtail, Giant plant response rating (0 to 100 scale) ([6]; 125 g ai/ha)	Foxtail, Giant plant response rating (0 to 100 scale) ([6]; 500 g ai/ha)	Ryegrass, Italian plant response rating (0 to 100 scale) ([7]; 125 g ai/ha)	Ryegrass, Italian plant response rating (0 to 100 scale) ([7]; 500 g ai/ha)	Wheat plant response rating (0 to 100 scale) ([8]; 125 g ai/ha)	Wheat plant response rating (0 to 100 scale) ([8]; 500 g ai/ha)	Barnyardgrass plant response rating (0 to 100 scale) ([9]; 125 g ai/ha)	Barnyardgrass plant response rating (0 to 100 scale) ([9]; 500 g ai/ha)	Kochia plant response rating (0 to 100 scale) ([10]; 125 g ai/ha)	Kochia plant response rating (0 to 100 scale) ([10]; 500 g ai/ha)	also measured
Cc1ccc(C2Cn3c(C)nnc3C2C(=O)Nc2ccccc2F)cc1 (stereo not drawn) [Compound 27]	0	20	0	40	0	0	0	0	0	0	30	90	0	30	0	0	40	90	0	0	Plant response rating, Flood, Rice [11]: 0; Plant response rating, Flood, Barnyardgrass [12]: 0; Plant response rating, Flood, Sedge, Umbrella [13]: 0; Plant response rating, Flood, Ducksalad [14]: 70; Ragweed plant response rating (0 to 100 scale) ([15]; 125 g ai/ha): 0; Ragweed plant response rating (0 to 100 scale) ([15]; 500 g ai/ha): 0; Pigweed plant response rating (0 to 100 scale) ([16]; 125 g ai/ha): 0; Pigweed plant response rating (0 to 100 scale) ([16]; 500 g ai/ha): 0; Foxtail, Giant plant response rating (0 to 100 scale) ([17]; 125 g ai/ha): 80; Foxtail, Giant plant response rating (0 to 100 scale) ([17]; 500 g ai/ha): 90; Ryegrass, Italian plant response rating (0 to 100 scale) ([18]; 125 g ai/ha): 20; Ryegrass, Italian plant response rating (0 to 100 scale) ([18]; 500 g ai/ha): 20; Barnyardgrass plant response rating (0 to 100 scale) ([19]; 125 g ai/ha): 0; Barnyardgrass plant response rating (0 to 100 scale) ([19]; 500 g ai/ha): 90; Kochia plant response rating (0 to 100 scale) ([20]; 125 g ai/ha): 0; Kochia plant response rating (0 to 100 scale) ([20]; 500 g ai/ha): 0
CCc1ccc(C2Cn3cnnc3C2C(=O)Nc2cccc(F)c2C)cc1 (stereo not drawn) [Compound 28]	20	40	20	30	0	0	0	0	0	0	40	60	0	50	0	0	50	80	20	50	Plant response rating, Flood, Rice [11]: 20; Plant response rating, Flood, Barnyardgrass [12]: 40; Plant response rating, Flood, Sedge, Umbrella [13]: 75; Plant response rating, Flood, Ducksalad [14]: 90; Ragweed plant response rating (0 to 100 scale) ([15]; 125 g ai/ha): 0; Ragweed plant response rating (0 to 100 scale) ([15]; 500 g ai/ha): 30; Pigweed plant response rating (0 to 100 scale) ([16]; 125 g ai/ha): 0; Pigweed plant response rating (0 to 100 scale) ([16]; 500 g ai/ha): 0; Foxtail, Giant plant response rating (0 to 100 scale) ([17]; 125 g ai/ha): 70; Foxtail, Giant plant response rating (0 to 100 scale) ([17]; 500 g ai/ha): 90; Ryegrass, Italian plant response rating (0 to 100 scale) ([18]; 125 g ai/ha): 0; Ryegrass, Italian plant response rating (0 to 100 scale) ([18]; 500 g ai/ha): 30; Barnyardgrass plant response rating (0 to 100 scale) ([19]; 125 g ai/ha): 60; Barnyardgrass plant response rating (0 to 100 scale) ([19]; 500 g ai/ha): 90; Kochia plant response rating (0 to 100 scale) ([20]; 125 g ai/ha): 60; Kochia plant response rating (0 to 100 scale) ([20]; 500 g ai/ha): 60
